The values that follow come from ChEMBL document CHEMBL2034838, “Quinazolino-benzothiazoles: fused pharmacophores as anticonvulsant agents” (Eur J Med Chem, 2012).

The test system of data set [1] is Mus musculus. Nature of the data set: Anticonvulsant activity in Swiss albino mouse assessed as decrease in time of subcutaneous PTZ-induced clonic hind leg extension administered as ip at equimolar dose of diazepam 30 mins before subcutaneous PTZ challenge measured after 0.5 hrs (reference value: 76.80 +/- 2.41 sec). The class given is functional, Hindlimb.
The test system of data set [2] is Mus musculus. The data set can be described thus: Anticonvulsant activity in Swiss albino mouse assessed as decrease in time of maximum electroshock-induced tonic hind leg extension administered as ip at equimolar dose of phenytoin 30 mins before maximum electroshock seizure stimulation measured after 0.5 hrs (reference value: 15.40 +/- 0.50 sec). The class given is functional, Hindlimb.

Data set [3] relates to Mus musculus. The data set can be described thus: Hepatotoxicity in Swiss albino mouse assessed as change in liver SGPT level at 25 mg/kg/day for 15 days. It is filed as toxicity, organism-based. As to conditions: in vivo, 360 h.
Data set [4] deals with Mus musculus. The data set can be described thus: Hepatotoxicity in Swiss albino mouse assessed as change in liver alkaline phosphatase level at 25 mg/kg/day for 15 days. The class given is toxicity, organism-based. As to conditions: in vivo, 360 h.
The species named for data set [5] is Mus musculus. The data set can be described thus: Neurotoxicity in Swiss albino mouse by rotarod test. It is filed as toxicity, organism-based. As to conditions: in vivo. On the technique in general: In the rotarod test animals must keep their balance on a rotating rod.
The subject of data set [6] is Mus musculus. The data set can be described thus: Hepatotoxicity in Swiss albino mouse assessed as change in liver SGOT level at 25 mg/kg/day for 15 days. The class given is toxicity, organism-based. As to conditions: in vivo, 360 h.
Data set [7] concerns Mus musculus. The data set can be described thus: Hepatotoxicity in Swiss albino mouse assessed as change in liver total protein level assessed per 100 ml at 25 mg/kg/day for 15 days. The class given is toxicity, organism-based. As to conditions: in vivo, 360 h.
The test system of data set [8] is Mus musculus. Nature of the data set: Anticonvulsant activity in ip dosed Swiss albino mouse assessed as decrease in time of subcutaneous PTZ-induced clonic hind leg extension administered 30 mins before subcutaneous PTZ challenge measured after 0.5 hrs (reference value: 76.80 +/- 2.41 sec). The class given is functional, Hindlimb.

Regarding `CCc1nc2ccc(Br)cc2c(=O)n1-c1nc2cc(OC)ccc2s1`, the Time in data set [1] was found to be 89.8 s; in data set [2], 10.6 s.
The like results for `CCc1nc2ccc(Br)cc2c(=O)n1-c1nc2c(C)cccc2s1` were, in that order, 95.23 s and 10.5 s.
For `CCc1nc2ccc(Br)cc2c(=O)n1-c1nc2c(C)cc(C)cc2s1`, the Time in data set [1] was found to be 91.6 s; in data set [2], 11.8 s.
For the compound `CCc1nc2ccc(Br)cc2c(=O)n1-c1nc2c(OC)cccc2s1`, the Activity result is recorded as “Non-toxic” in data set [3]; “Non-toxic” in data set [4]; “Non-toxic” in data set [5]; “Non-toxic” in data set [6]; 1.82 g in data set [7]. The Time was 98.12 s in data set [1] and 10.2 s in data set [2].
Consider `CCc1nc2ccc(Br)cc2c(=O)n1-c1nc2cc(Cl)ccc2s1`, for which the Activity result in data set [3] is listed as “Non-toxic”; in data set [4], “Non-toxic”; in data set [5] it was “Non-toxic”; in data set [6] it was “Non-toxic”; in data set [7], 1.75 g. The Time in data set [1] is reported as 93 s; in data set [2], 8.6 s.
With `CN1C(=O)CN=C(c2ccccc2)c2cc(Cl)ccc21` [DIAZEPAM], the Activity result in data set [5] is given as “Non-toxic”. Besides, the Time in data set [8] was 111.6 s.
Consider `CCc1nc2ccc(Br)cc2c(=O)n1-c1nc2ccc(OC)cc2s1`, for which the Activity result in data set [3] is “Non-toxic”; in data set [4], “Non-toxic”; in data set [5], “Non-toxic”; in data set [6], “Non-toxic”; in data set [7], 1.78 g. Also, the results for the Time in data set [1] and in data set [2] were 99.45 s and 9.7 s, respectively.
In the case of `CCOc1cccc2sc(-n3c(CC)nc4ccc(Br)cc4c3=O)nc12`, the Activity result in data set [3] is recorded as “Non-toxic”; in data set [4], “Non-toxic”; in data set [5] it was “Non-toxic”; in data set [6] it was “Non-toxic”; in data set [7], 1.82 g. The Time in data set [1] came out at 98 s; in data set [2], 10.1 s.
Turning to `CCc1nc2ccc(Br)cc2c(=O)n1-c1nc2ccc([N+](=O)[O-])cc2s1`, the Time is given as 91 s in data set [1] and 12 s in data set [2].
For `CCc1nc2ccc(Br)cc2c(=O)n1-c1nc2cc(C)ccc2s1` the same measures were 93.2 s and 11.2 s.
Turning to `CCc1nc2ccc(Br)cc2c(=O)n1-c1nc2ccccc2s1`, the Activity entry in data set [3] is recorded as “Non-toxic”; in data set [4], “Non-toxic”; in data set [5], “Non-toxic”; in data set [6] it was “Non-toxic”; in data set [7] it was 1.82 g. Besides, the Time in data set [1] came out at 91.6 s; in data set [2], 7.4 s.
